In patent US12070445B2, “System and assay for monitoring production/release of membrane-lytic toxins in bacteria and compounds for modulating same” (priority 2021, dated 2024):
Where two headings read alike, the source gives them in different places.

Key:
agr = agr YFP transcriptional reporter assay (S. aureus AH1677 with pDB59); format: cell-based; details: for IC50: Staphylococcus aureus
Experimental: Bacterial strains and culture. All bacteria were grown at 37° C. with 200 rpm shaking unless otherwise specified. S. aureus and P. aeruginosa were grown in BHI medium and LB medium, respectively. S. aureus AH1677 (with an agr-YFP reporter plasmid) and P. aeruginosa PAO1-PGSC (with a plasI-LVAgfp reporter plasmid) were used as QS transcriptional reporters and grown with 10 μg/mL chloramphenicol and 300 μg/mL carbenicillin, respectively. All other strains were grown without supplemental antibiotic. S. aureus RN6390b and P. aeruginosa PAO1-PGSC were used as WT strains in vesicle lysis experiments, while S. aureus RN9222 and P. aeruginosa PAO-JG35 were used as QS mutants. RN9222 was grown without antibiotic as it was not used as a reporter strain (i.e., it served only as QS mutant).
High-throughput screening and follow-up analysis protocols. Test compounds and positive control 1 were delivered in 2.5 nL aliquots of DMSO with an Echo 550 liquid handler (LabCyte Inc.) into black 384-well microtiter plates (Corning). All test compounds were tested at 10 μM; positive control 1 was tested at 250 nM. DMSO was used as a negative control. Overnight cultures (2 mL) of WT S. aureus (RN6390b) were grown at 37° C. with shaking at 200 rpm. These cultures were diluted 1:500 (v/v) in fresh BHI medium, at which point vesicle solutions were added to a final concentration of 1 mM phospholipid (as determined by ^31P NMR analyses). This vesicle-cell mixture was then added to the 384-well microtiter plates with a Multidrop 384 liquid-dispensing robot (Thermo Scientific) for a total volume of 50 μL per well. Plates were incubated statically for ˜24 hr at 37° C., at which point fluorescence (excitation 483, emission 530) and OD600 (absorbance at 600 nm) measurements were made using a CLARIOstarR Plus microtiter plate reader (BMG Labtech) running MARS data analysis software. Scatter plots were generated using the Collaborative Drug Discovery Vault informatics platform. The dose-response experiment using the vesicle lysis assay was performed in a 384-well plate in technical duplicate with compound concentrations of 0.1, 0.25, 0.5, 1, 2.5, 5, 10, and 20 μM. Dose-response curves were generated using variable slope (4 parameter) non-linear regression analysis for compound inhibition using GraphPad Prism software (v. 9). Analysis of the QS modulatory activity of the HTS hits and 6 (savirin) was performed using the S. aureus YFP transcriptional reporter strain. HTS hits were purchased directly from Life Chemicals, Inc. DMSO stock solutions (10 mM) of each compound were prepared and stored at −20° C. Serial dilutions (1:3) were prepared from the stock solutions in DMSO, and 2 μL aliquots of the resulting dilutions were added to the wells of black 96-well microtiter plates (Corning). Overnight cultures of the S. aureus reporter strain (2 mL) were grown at 37° C. with shaking at 200 rpm. Cultures were diluted 1:50 (v/v) into fresh BHI medium, and 198 μL of this diluted culture were added to each well containing compound, for a total volume of 200 μL per well. All plates contained a vehicle control consisting of 2 μL of DMSO and 198 μL of culture and a media control consisting of 200 μL BHI. Plates were incubated for ˜24 hours at 37° C. with shaking at 200 rpm. Fluorescence (excitation 510, emission 544) and OD600 measurements were acquired with a PerkinElmer EnVision microtiter plate reader running Envision Manager software. Background fluorescence from BHI control was subtracted from raw fluorescence reads, OD600 corrected, and finally normalized to vehicle control. Dose-response curves and IC50 values were generated using 3-parameter non-linear regression analysis for compound inhibition using GraphPad Prism software (v. 9). All compounds were tested in technical triplicate with at least 3 biological replicates.

human apelin receptor = target: T1, human apelin receptor (Homo sapiens, UniProt P35414); details: Smith, 2019; cited from earlier work
T1 sequence (P35414 1-380): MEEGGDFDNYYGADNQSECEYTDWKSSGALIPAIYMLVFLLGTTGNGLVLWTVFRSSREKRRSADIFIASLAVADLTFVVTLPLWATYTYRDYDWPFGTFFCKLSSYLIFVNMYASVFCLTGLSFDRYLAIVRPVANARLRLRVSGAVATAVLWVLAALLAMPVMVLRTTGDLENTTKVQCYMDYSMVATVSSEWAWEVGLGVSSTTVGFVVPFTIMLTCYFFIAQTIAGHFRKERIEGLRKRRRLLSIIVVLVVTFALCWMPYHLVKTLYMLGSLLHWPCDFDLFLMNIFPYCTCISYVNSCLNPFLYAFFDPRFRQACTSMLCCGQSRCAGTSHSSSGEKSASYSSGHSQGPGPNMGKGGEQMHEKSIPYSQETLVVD

S. aureus = S. aureus growth (OD600); format: cell-based; details: S. aureus, HTS hits
Experimental: Microtiter plate vesicle lysis assays. Portions of media (2 or 10 mL) were inoculated with individual bacterial colonies and allowed to shake overnight. From these overnight cultures, subcultures were prepared by diluting the cultures 1:50 (v/v) in fresh BHI for S. aureus or 1:100 (v/v) in fresh LB for P. aeruginosa. An aliquot of each subculture (178 μL) was added to 20 μL of vesicle suspension and 2 μL of compound solution (dissolved in DMSO at 100× working concentration) in a clear-bottomed, black 96-well microtiter plate (Corning 3904). For controls, DMSO (vehicle) or Triton X-100 (1% final concentration) was substituted for compound. Plate covers were coated with an aqueous solution of 0.05% Triton X-100 and 20% ethanol (Brewster, 2003) to prevent the accumulation of condensation. Plates were incubated in a Biotek Synergy 2 microplate reader running Gen5 1.05 software at 37° C. with shaking at the high-speed setting. Fluorescence (excitation 500 nm, emission 540 nm) and OD600 (absorbance at 600 nm) measurements were recorded every 15 minutes for 12 hours. All experiments were performed in technical triplicate in a single microtiter plate. Biological triplicates were then obtained over three days. GraphPad Prism software (v. 9) was used to generate curves and calculate standard error.
High-throughput screening and follow-up analysis protocols. Test compounds and positive control 1 were delivered in 2.5 nL aliquots of DMSO with an Echo 550 liquid handler (LabCyte Inc.) into black 384-well microtiter plates (Corning). All test compounds were tested at 10 μM; positive control 1 was tested at 250 nM. DMSO was used as a negative control. Overnight cultures (2 mL) of WT S. aureus (RN6390b) were grown at 37° C. with shaking at 200 rpm. These cultures were diluted 1:500 (v/v) in fresh BHI medium, at which point vesicle solutions were added to a final concentration of 1 mM phospholipid (as determined by ^31P NMR analyses). This vesicle-cell mixture was then added to the 384-well microtiter plates with a Multidrop 384 liquid-dispensing robot (Thermo Scientific) for a total volume of 50 μL per well. Plates were incubated statically for ˜24 hr at 37° C., at which point fluorescence (excitation 483, emission 530) and OD600 (absorbance at 600 nm) measurements were made using a CLARIOstarR Plus microtiter plate reader (BMG Labtech) running MARS data analysis software. Scatter plots were generated using the Collaborative Drug Discovery Vault informatics platform. […] Fluorescence (excitation 510, emission 544) and OD600 measurements were acquired with a PerkinElmer EnVision microtiter plate reader running Envision Manager software. […]

[1] = Solubility in DMSO and aqueous solutions

For Cc1nn2c(C(C)C)cc(C(=O)O)nc2c1-c1ccccc1 [Compound 10, 7-isopropyl-2-methyl-3-phenylpyrazolo[1,5-a]pyrimidine-5-carboxylic acid], the “agr inhibition in agr transcriptional reporter assay” value (agr; S. aureus agr YFP reporter) was “near maximal agr inhibitors”, the IC50 (agr) was 1.22 µM and the IC50 (agr; 24 h, read-out: IC50 in the agr reporter assay) was 0.5 µM. The “reported activity at human apelin receptor” value (human apelin receptor) was “agonists”, the “inhibition of cellular growth” value (S. aureus) was “do not inhibit cellular growth” and the “solubility in DMSO and aqueous solutions” value [1] was “readily soluble”.
